Where “and” joins values, the source holds several entries; their conditions need not be identical. Equal entries are not always repeated.
Key:
[1] = test system: burn response of the right ear of female Sprague-Dawley rats; experiment: Ear Burn Test (anti-inflammatory activity, ear burn model); type: in vivo; details: for mean (-x) of Δ %, % increase in thickness of the treated ear: group mean; for R ear (thickness of burned, treated ear) / Δ %, % increase in thickness of the treated ear: individual rats; for % inhibition of control response / % inhibition of control response (negative = inflammatory): 50 μl/burned ear, vehicle 90% acetone, 10% IPM, 16-18 hours; for % inhibition of control response (negative = inflammatory): 3 × 10^-2 M
Description: The anti-inflammatory activity of dipivalyloxymethylepinephrine (DDME), a novel prodrug according to this invention, was determined in an ear burn model vis-a-vis the known epinephrine prodrug, dipivalylepinephrine (DPE). Three different ear burn experiments were carried out, each experiment developing a comparison at two different drug dosages.
A controlled thermal challenge was administered to the right ear of female Sprague-Dawley rats, 40-60 g. […] Pressure applied during the 21 second burn administration was ca. 640 g/cm^2. Two groups, with and without application of vehicle (90% acetone, 10% isopropyl-myristate) served as controls. Vehicle with or without drug was applied to the right ear immediately after burning in the amount of […]. Rats were killed by cervical disclocation 16-18 hours after treatment and the thickness of each ear was determined with a micrometer (in inches ×10^3). Burn response values were normalized by expression of the % increase in thickness of the treated ear, i.e., [formula] The vehicle-treated control group was considered to be the maximum burn response within any given experiment. Inhibition or reversal of the burn response due to drug treatment is expressed as a percentage of the control response.

psoriatic response = details: concentrations comparable to 3×10^-2 M; cited from earlier work
[2] = 0.00001 M, n = 8, control/vehicle 44.6%
[3] = 0.0001 M, n = 8, control/vehicle 44.6%
[4] = .00003 M, control/vehicle 40.2 ± 12.6
[5] = .0003 M, control/vehicle 40.2 ± 12.6
[6] = .003 M, control/vehicle 32.5 ± 8.9
[7] = .03 M, control/vehicle 32.5 ± 8.9

## CNCC(O)c1ccc(OC(=O)C(C)(C)C)c(OC(=O)C(C)(C)C)c1 (stereo not drawn) [DPE, dipivalylepinephrine]
[1]; [2]
  mean (-x) of Δ %, % increase in thickness of the treated ear: 33.3%
[1]; 0.00001 M
  R ear (thickness of burned, treated ear): 17.8 inches ×10^3 and 15.7 inches ×10^3 and 16.2 inches ×10^3 and 18.1 inches ×10^3 and 16.1 inches ×10^3 and 14.5 inches ×10^3 and 18.3 inches ×10^3
  Δ %, % increase in thickness of the treated ear: 41.3% and 26.6% and 24.6% and 29.8% and 46.0% and 26.8% and 25.0% and 46.4%
[1]; [3]
  mean (-x) of Δ %, % increase in thickness of the treated ear: 34.4%
[1]; 0.0001 M
  R ear (thickness of burned, treated ear): 15.9 inches ×10^3 and 17.3 inches ×10^3 and 17.4 inches ×10^3 and 18.3 inches ×10^3 and 16.6 inches ×10^3 and 15.8 inches ×10^3 and 16.4 inches ×10^3 and 17.2 inches ×10^3
  Δ %, % increase in thickness of the treated ear: 31.4% and 35.2% and 35.9% and 48.8% and 32.8% and 26.4% and 27.1% and 37.6%
[1]; 1 × 10^-4 M
  % inhibition of control response: 22.9%
[1]; 1 × 10^-5 M
  % inhibition of control response: 25.3%
[1]
  % inhibition of control response (negative = inflammatory): -21.5%
[1]; 3 × 10^-3 M
  % inhibition of control response: 8%
[1]; 3 × 10^-4 M
  % inhibition of control response: 31.3%
[1]; 3 × 10^-5 M
  % inhibition of control response: 19.7%
[1]; [4]
  mean (-x) of Δ %, % increase in thickness of the treated ear: 32.3 ± 5.2%
[1]; .00003 M
  R ear (thickness of burned, treated ear): 16.4 inches ×10^3 and 18.2 inches ×10^3 and 17.5 inches ×10^3 and 18.1 inches ×10^3 and 16.8 inches ×10^3 and 18.5 inches ×10^3 and 14.5 inches ×10^3 and 16.0 inches ×10^3
  Δ %, % increase in thickness of the treated ear: 29.1% and 32.8% and 31.6% and 40.3% and 36.6% and 37.0% and 22.9% and 30.1%
[1]; [5]
  mean (-x) of Δ %, % increase in thickness of the treated ear: 27.6 ± 6.9%
[1]; .0003 M
  R ear (thickness of burned, treated ear): 15.8 inches ×10^3 and 16.4 inches ×10^3 and 18.0 inches ×10^3 and 18.3 inches ×10^3 and 17.7 inches ×10^3 and 16.6 inches ×10^3 and 15.2 inches ×10^3 and 16.2 inches ×10^3
  Δ %, % increase in thickness of the treated ear: 27.4% and 26.2% and 27.7% and 35.6% and 34.1% and 12.6% and 29.6%
[1]; [6]
  mean (-x) of Δ %, % increase in thickness of the treated ear: 29.9 ± 10.8%
[1]; .003 M
  R ear (thickness of burned, treated ear): 18.6 inches ×10^3 and 19.6 inches ×10^3 and 19.8 inches ×10^3 and 16.7 inches ×10^3 and 16.5 inches ×10^3 and 17.1 inches ×10^3 and 13.4 inches ×10^3 and 17.2 inches ×10^3
  Δ %, % increase in thickness of the treated ear: 39.8% and 41.0% and 43.5% and 21.9% and 23.1% and 29.5% and 12.6% and 27.4%
[1]; [7]
  mean (-x) of Δ %, % increase in thickness of the treated ear: 39.5 ± 11.4%
[1]; .03 M
  R ear (thickness of burned, treated ear): 17.5 inches ×10^3 and 21.3 inches ×10^3 and 18.1 inches ×10^3 and 18.5 inches ×10^3 and 20.0 inches ×10^3 and 17.4 inches ×10^3 and 15.7 inches ×10^3 and 18.3 inches ×10^3
  Δ %, % increase in thickness of the treated ear: 32.6% and 56.6% and 43.7% and 37.0% and 52.7% and 28.9% and 23.6% and 40.8%
Psoriatic response
  psoriatic response in clinical observations: a psoriatic response was often observed

## CNCC(O)c1ccc(OCOC(=O)C(C)(C)C)c(OCOC(=O)C(C)(C)C)c1 (stereo not drawn) [DPME, dipivalyloxymethylepinephrine]
[1]; [2]
  mean (-x) of Δ %, % increase in thickness of the treated ear: 30.5%
[1]; 0.00001 M
  R ear (thickness of burned, treated ear): 16.3 inches ×10^3 and 16.5 inches ×10^3 and 13.8 inches ×10^3 and 14.1 inches ×10^3 and 17.0 inches ×10^3 and 14.7 inches ×10^3 and 17.8 inches ×10^3 and 16.8 inches ×10^3
  Δ %, % increase in thickness of the treated ear: 30.4% and 35.2% and 16.9% and 22.6% and 41.7% and 20.5% and 40.2% and 36.6%
[1]; [3]
  mean (-x) of Δ %, % increase in thickness of the treated ear: 23.0%
[1]; 0.0001 M
  R ear (thickness of burned, treated ear): 14.0 inches ×10^3 and 14.7 inches ×10^3 and 13.6 inches ×10^3 and 14.5 inches ×10^3 and 15.4 inches ×10^3 and 14.9 inches ×10^3 and 15.3 inches ×10^3
  Δ %, % increase in thickness of the treated ear: 18.6% and 23.5% and 12.4% and 21.8% and 31.6% and 22.5% and 26.3% and 27.5%
[1]; 1 × 10^-4 M
  % inhibition of control response: 48.4%
[1]; 1 × 10^-5 M
  % inhibition of control response: 31.6%
[1]
  % inhibition of control response (negative = inflammatory): -32.6%
[1]; 3 × 10^-3 M
  % inhibition of control response: 8%
[1]; 3 × 10^-4 M
  % inhibition of control response: 41.3%
[1]; 3 × 10^-5 M
  % inhibition of control response: 30.6%
[1]; [4]
  mean (-x) of Δ %, % increase in thickness of the treated ear: 27.9 ± 6.2%
[1]; .00003 M
  R ear (thickness of burned, treated ear): 15.3 inches ×10^3 and 17.8 inches ×10^3 and 16.6 inches ×10^3 and 16.3 inches ×10^3 and 15.5 inches ×10^3 and 15.4 inches ×10^3 and 16.9 inches ×10^3
  Δ %, % increase in thickness of the treated ear: 17.7% and 38.0% and 31.7% and 25.4% and 26.0% and 24.2% and 32.8% and 27.0%
[1]; [5]
  mean (-x) of Δ %, % increase in thickness of the treated ear: 23.6 ± 7.9%
[1]; .0003 M
  R ear (thickness of burned, treated ear): 17.7 inches ×10^3 and 16.4 inches ×10^3 and 18.0 inches ×10^3 and 17.5 inches ×10^3 and 15.2 inches ×10^3 and 15.5 inches ×10^3 and 15.0 inches ×10^3 and 14.8 inches ×10^3
  Δ %, % increase in thickness of the treated ear: 22.1% and 17.1% and 38.5% and 31.6% and 22.6% and 24.0% and 17.2% and 15.6%
[1]; [6]
  mean (-x) of Δ %, % increase in thickness of the treated ear: 29.9 ± 12.2%
[1]; .003 M
  R ear (thickness of burned, treated ear): 19.9 inches ×10^3 and 15.1 inches ×10^3 and 18.1 inches ×10^3 and 17.0 inches ×10^3 and 17.1 inches ×10^3 and 15.2 inches ×10^3 and 14.0 inches ×10^3 and 16.9 inches ×10^3
  Δ %, % increase in thickness of the treated ear: 45.3% and 21.8% and 42.5% and 26.9% and 41.3% and 17.8% and 12.9% and 31.0%
[1]; [7]
  mean (-x) of Δ %, % increase in thickness of the treated ear: 43.1 ± 12.4%
[1]; .03 M
  R ear (thickness of burned, treated ear): 18.4 inches ×10^3 and 16.9 inches ×10^3 and 20.7 inches ×10^3 and 18.2 inches ×10^3 and 19.3 inches ×10^3 and 20.9 inches ×10^3 and 19.0 inches ×10^3
  Δ %, % increase in thickness of the treated ear: 36.3% and 30.0% and 47.9% and 43.0% and 64.6% and 49.6%
[1]; low concentration levels
  anti-inflammatory effect compared with DPE: consistently elicits a greater anti-inflammatory effect than DPE
[1]; versus DPE, dose response profiles at low concentrations
  more effective as an anti-inflammatory agent from a dosage standpoint: 10-30 fold

Reference: patent US4313956A, “Novel sypathomimetic amine prodrugs” (INTERx Research Corp., priority 1979, dated 1982)
